Assay results taken from ChEMBL document CHEMBL1201862, “PubChem BioAssay data set” (2004).
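Where inhibition never reached the appropriate level, the endpoint shown equals the highest concentration tested. Otherwise, values were interpolated linearly from a five-concentration, 48-hour dose response in 96-well plates. Here, GI50 denotes the concentration required for 50% inhibition of growth.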 The source made the active and inactive calls. No stated cut-off is given here; in the data, active = GI50 up to about 1.1 µM and inactive = higher.

Legend:
Test in all cases: inhibition of tumour cell growth, NCI panel, 48 h
RXF 631 = tested on: RXF 631
DMS-114 = tested on: DMS-114
DMS-273 = tested on: DMS-273
M19-MEL = tested on: M19-MEL
LXFL 529 = tested on: LXFL 529
XF498 = tested on: XF498
HOP-18 = tested on: HOP-18
SNB-78 = tested on: SNB-78
KM-20L2 = tested on: KM-20L2

| Compound | GI50 (RXF 631) | GI50 (DMS-114) | GI50 (DMS-273) | GI50 (M19-MEL) | GI50 (LXFL 529) | GI50 (XF498) | GI50 (HOP-18) | GI50 (SNB-78) | GI50 (KM-20L2) |
| --- | --- | --- | --- | --- | --- | --- | --- | --- | --- |
| CN(C)/C(=N/C(=S)Nc1ccccc1)SCc1ccccc1 | 88.1 µM (inactive) | 9.93 µM (inactive) | 51.6 µM (inactive) | 14.7 µM (inactive) | 2.38 µM (inactive) | 24.4 µM (inactive) | > 100 µM (inactive) | > 100 µM (inactive) | – |
| COc1ccc2c(c1)[n+]([O-])c(-c1ccccc1Cl)c(N)[n+]2[O-] | 37.4 µM (inactive) | 32.8 µM (inactive) | 55.6 µM (inactive) | 69.8 µM (inactive) | 55.3 µM (inactive) | – | > 100 µM (inactive) | > 100 µM (inactive) | 38.8 µM (inactive) |
| COc1cc(/C=C2\C(=O)N(C(=O)c3ccc(NC(C)=O)cc3)N=C2C)ccc1O | – | > 100 µM (inactive) | > 100 µM (inactive) | > 100 µM (inactive) | – | – | > 100 µM (inactive) | > 100 µM (inactive) | – |
| CCc1ccccc1NC(=O)C1=C(C)NC(C)=C(C(=O)Nc2ccccc2CC)C1c1ccc(NC(C)=O)cc1 | – | 28.1 µM (inactive) | – | 32.7 µM (inactive) | 33 µM (inactive) | – | – | 33.3 µM (inactive) | 16.4 µM (inactive) |
| OCC1C(/C=C/c2ccoc2)ON2CCCC12 (stereo not given) | – | – | > 100 µM (inactive) | > 100 µM (inactive) | > 100 µM (inactive) | > 100 µM (inactive) | 0.279 µM (active) | > 100 µM (inactive) | > 100 µM (inactive) |
| CC(=O)NC1C(OCc2ccccc2)OC(COC(=O)CCCCCNc2ccc([N+](=O)[O-])c3[nH]c4ccc(O)cc4c(=O)c23)C(O)C1OC(C)C(=O)N[C@@H](C)C(=O)N[C@H](CCC(=O)OCc1ccccc1)C(N)=O (stereo not given in full) | 0.759 µM (active) | – | 1.49 µM (inactive) | 5.68 µM (inactive) | 1.5 µM (inactive) | – | 1.71 µM (inactive) | 3.16 µM (inactive) | 0.234 µM (active) |
| CC(C)(Oc1ccc(/C=C/C(=O)c2ccccc2)cc1)C(=O)Nc1c(Cl)cccc1Cl | – | 8.47 µM (inactive) | 8.07 µM (inactive) | > 10 µM (inactive) | 6.56 µM (inactive) | > 10 µM (inactive) | > 10 µM (inactive) | > 10 µM (inactive) | > 10 µM (inactive) |
| Cc1nc(Nc2ccc(Cl)cc2)sc1C(=O)NNC(=O)C(=O)NN | – | 20.4 µM (inactive) | 19.1 µM (inactive) | 19.2 µM (inactive) | 18.3 µM (inactive) | – | 16.2 µM (inactive) | 26.9 µM (inactive) | 16.3 µM (inactive) |
| Cc1c(C(=O)/C=C/c2ccc(N(C)C)cc2)c(=O)n(-c2ccccc2)n1C | – | > 100 µM (inactive) | > 100 µM (inactive) | > 100 µM (inactive) | > 100 µM (inactive) | > 100 µM (inactive) | – | > 100 µM (inactive) | > 100 µM (inactive) |
| O=[N+]([O-])c1cccc(C2N3CCCCC3[C@@H]3c4[nH]c5ccccc5c4CCN23)c1 (stereo not given in full) | – | 6.9 µM (inactive) | 11.8 µM (inactive) | 11.9 µM (inactive) | 19 µM (inactive) | 14 µM (inactive) | 54.6 µM (inactive) | 9.79 µM (inactive) | 11 µM (inactive) |
| COc1cc(/C=C/C(=O)c2cccc3ccccc23)cc(OC)c1OC | – | – | 3.59 µM (inactive) | 7.33 µM (inactive) | 2.73 µM (inactive) | 7.74 µM (inactive) | 12.4 µM (inactive) | 3.44 µM (inactive) | 3.94 µM (inactive) |
| c1ccc(-c2nnc(-c3nn(-c4ccccc4)c4nc5ccccc5nc34)o2)cc1 | – | 28.8 µM (inactive) | 92 µM (inactive) | 47.8 µM (inactive) | 12.3 µM (inactive) | 22.1 µM (inactive) | 20 µM (inactive) | > 100 µM (inactive) | > 100 µM (inactive) |
| COC1(OC)C2(Cl)C3=CCCC=C3C1(Cl)C(Cl)=C2Cl | 13.2 µM (inactive) | 18.1 µM (inactive) | 13.3 µM (inactive) | 18.8 µM (inactive) | 25.6 µM (inactive) | 19.2 µM (inactive) | – | 31.8 µM (inactive) | 23.2 µM (inactive) |
| NC1=NC(=O)/C(=C2\CCNC(=O)c3[nH]c(Br)cc32)N1 [HYMENIALDISINE] | – | 13 µM (inactive) | > 85.5 µM (inactive) | 48.5 µM (inactive) | – | > 100 µM (inactive) | > 45.1 µM (inactive) | 86.3 µM (inactive) | 70.1 µM (inactive) |
